Measured values taken from US12037322B2, “AHR agonists” (Eli Lilly and Company, priority 2021, dated 2024).

Target: T1, hAHR (Homo sapiens, UniProt P35869)
T1 construct: expressed in transfected cells
T1 sequence (P35869 11-848): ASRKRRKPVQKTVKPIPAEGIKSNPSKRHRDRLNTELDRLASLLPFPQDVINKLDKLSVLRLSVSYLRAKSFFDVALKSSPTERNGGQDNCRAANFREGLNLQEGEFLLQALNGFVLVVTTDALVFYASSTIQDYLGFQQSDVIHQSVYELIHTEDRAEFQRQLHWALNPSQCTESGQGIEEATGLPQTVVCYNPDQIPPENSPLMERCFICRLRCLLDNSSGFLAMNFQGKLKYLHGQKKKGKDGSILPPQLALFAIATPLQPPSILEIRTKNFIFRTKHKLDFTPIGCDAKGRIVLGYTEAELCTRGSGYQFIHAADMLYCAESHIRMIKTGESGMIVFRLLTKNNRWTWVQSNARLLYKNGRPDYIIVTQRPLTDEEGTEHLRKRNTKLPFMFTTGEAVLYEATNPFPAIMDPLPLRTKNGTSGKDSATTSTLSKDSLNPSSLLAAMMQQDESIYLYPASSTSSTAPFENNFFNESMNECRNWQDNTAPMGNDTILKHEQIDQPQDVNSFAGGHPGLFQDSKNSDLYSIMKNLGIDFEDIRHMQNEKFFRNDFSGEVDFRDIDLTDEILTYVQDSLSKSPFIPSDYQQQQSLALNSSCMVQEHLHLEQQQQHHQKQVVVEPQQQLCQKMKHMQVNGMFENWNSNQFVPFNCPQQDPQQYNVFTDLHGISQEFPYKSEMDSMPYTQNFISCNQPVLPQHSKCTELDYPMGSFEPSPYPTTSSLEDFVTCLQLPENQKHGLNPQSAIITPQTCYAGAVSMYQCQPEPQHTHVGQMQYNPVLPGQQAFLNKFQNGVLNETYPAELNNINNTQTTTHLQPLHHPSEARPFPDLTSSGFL
Experiment: hAHR nuclear translocation assay
Type: cell-based
Details: Jump-In T-REx HEK293 cells expressing AhR-EGFP; 45 min incubation; ratio of EGFP intensity in nuclear over cytosol; 20-point curve
Experimental: Stable cell lines were established using Jump-In™ T-REx™ HEK293 Retargeting Kit (Life Technologies). hAhR cDNA was cloned into the pJTI R4 CMV-TO EGFP vector. The EGFP was cloned to the C-terminal of AHR to form AhR-EGFP chimera. The pJTI R4 CMV-TO AhR-EGFP vector was transfected using FuGENE® HD into Jump-In™ T-REx™ HEK293 cells. Transfected cells were selected using 2.5 mg/ml G418 for 10 to 14 days, then expanded, harvested, and suspended in freeze media (FBS with 8% DMSO) at 2×10^7 cells/mL, and aliquots were stored in liquid nitrogen. One day before the assay date, cells were thawed and resuspended in DMEM with 5% FBS in the presence of 1 μg/mL Doxycycline and plated into ploy-L-Lysine coated […]-384 ULTRA Microplates (Perkin Elmer) at 12,000 to 15,000 cells per well and incubated at 37° C. and 5% CO2 overnight. On the assay date, compound was serially diluted (1:2) into 384-well nunc plates with DMSO using acoustic dispensing (ECHO). The dose response was a 20-point curve. Compound was resuspended in 40 μL of DMEM plus 0.1% BSA. The culture media was damped and 25 μL of DMEM plus 0.1% BSA was added, then 25 μL of compound in DMEM plus 0.1% BSA was added into cell plates. Cells were incubated with compounds at 37° C. and 5% CO2 for 45 min.
The final DMSO concentration was 0.2%. The media was damped after 45 minutes incubation. The cells were fixed with 40 μL of cold MeOH (−20° C.) for 20 min. The MeOH was damped and 50 μL of DPBS containing 1 μg/mL Hochst was added into the cell plates. The intensity of EGFP was quantitated by using OPERA PHENIX® or Operetta™ high content image system (Perkin Elmer) with 20× Water Objective and five field per well. The ratio of EGFP fluorescent intensity in nuclear over cytosol was analyzed using a 4-parameter nonlinear logistic equation to determine the potency of AhR agonists.

Row | SMILES | EC50 [nM]
1 | CC1CCc2c1cc(C(=O)NC1CCCC1)c(=O)n2C (centres unmarked) [Example 9, N-Cyclopentyl-1,5-dimethyl-2-oxo-6,7-dihydro-5H-cyclopenta[b]pyridine-3-carboxamide] | 191
2 | C[C@H]1CCc2c1cc(C(=O)Nc1nnc(C(F)(F)F)s1)c(=O)n2C [Example 10, (5S)-1,5-Dimethyl-2-oxo-N-[5-(trifluoromethyl)-1,3,4-thiadiazol-2-yl]-6,7-dihydro-5H-cyclopenta[b]pyridine-3-carboxamide] | 13.7
3 | C[C@@H]1CCc2c1cc(C(=O)Nc1ncc(F)cn1)c(=O)n2C [Example 12, (5R)-N-(5-Fluoropyrimidin-2-yl)-1,5-dimethyl-2-oxo-6,7-dihydro-5H-cyclopenta[b]pyridine-3-carboxamide] | 7.9
4 | Cn1c2c(cc(C(=O)Nc3ncc(F)cn3)c1=O)C(C)(C)CC2 [Example 14, N-(5-Fluoropyrimidin-2-yl)-1,5,5-trimethyl-2-oxo-6,7-dihydrocyclopenta[b]pyridine-3-carboxamide] | 26.8
5 | C[C@@H]1CCc2c1cc(C(=O)Nc1ccns1)c(=O)n2C [Example 16, (5R)-N-Isothiazol-5-yl-1,5-dimethyl-2-oxo-6,7-dihydro-5H-cyclopenta[b]pyridine-3-carboxamide] | 1.35
6 | C[C@@H]1CCc2c1cc(C(=O)Nc1ccsn1)c(=O)n2C [Example 18, (5R)-N-Isothiazol-3-yl-1,5-dimethyl-2-oxo-6,7-dihydro-5H-cyclopenta[b]pyridine-3-carboxamide] | 1.32
7 | C[C@H]1CCc2c1cc(C(=O)Nc1ccsn1)c(=O)n2C [Example 19, (5S)-N-Isothiazol-3-yl-1,5-dimethyl-2-oxo-6,7-dihydro-5H-cyclopenta[b]pyridine-3-carboxamide] | 1.04
8 | C[C@@H]1CCc2c1cc(C(=O)Nc1cnsc1)c(=O)n2C [Example 20, (5R)-N-Isothiazol-4-yl-1,5-dimethyl-2-oxo-6,7-dihydro-5H-cyclopenta[b]pyridine-3-carboxamide] | 5.23
9 | C[C@H]1CCc2c1cc(C(=O)Nc1cnsc1)c(=O)n2C [Example 21, (5S)-N-Isothiazol-4-yl-1,5-dimethyl-2-oxo-6,7-dihydro-5H-cyclopenta[b]pyridine-3-carboxamide] | 4.72
10 | C[C@H]1CCc2c1cc(C(=O)Nc1ncc(Cl)cn1)c(=O)n2C [Example 24, (5S)-N-(5-Chloropyrimidin-2-yl)-1,5-dimethyl-2-oxo-6,7-dihydro-5H-cyclopenta[b]pyridine-3-carboxamide] | 2.45
11 | C[C@@H]1CCc2c1cc(C(=O)Nc1ncc(Cl)cn1)c(=O)n2C [Example 25, (5R)-N-(5-Chloropyrimidin-2-yl)-1,5-dimethyl-2-oxo-6,7-dihydro-5H-cyclopenta[b]pyridine-3-carboxamide] | 1.91
12 | CC1CCc2c1c(O)c(C(=O)Nc1ccc(F)cn1)c(=O)n2C (centres unmarked) [Example 26, N-(5-Fluoro-2-pyridyl)-4-hydroxy-1,5-dimethyl-2-oxo-6,7-dihydro-5H-cyclopenta[b]pyridine-3-carboxamide] | 2.87
13 | COc1cnc(NC(=O)c2c(O)c3c(n(C)c2=O)CCC3C)nc1 (centres unmarked) [Example 27, 4-Hydroxy-N-(5-methoxypyrimidin-2-yl)-1,5-dimethyl-2-oxo-6,7-dihydro-5H-cyclopenta[b]pyridine-3-carboxamide] | 6.41
14 | CC1CCc2c1c(O)c(C(=O)Nc1ccc(C(F)(F)F)nc1)c(=O)n2C (centres unmarked) [Example 28, 4-Hydroxy-1,5-dimethyl-2-oxo-N-[6-(trifluoromethyl)-3-pyridyl]-6,7-dihydro-5H-cyclopenta[b]pyridine-3-carboxamide] | 3.68
15 | CC1CCc2c1c(O)c(C(=O)Nc1ncccc1F)c(=O)n2C (centres unmarked) [Example 29, N-(3-Fluoro-2-pyridyl)-4-hydroxy-1,5-dimethyl-2-oxo-6,7-dihydro-5H-cyclopenta[b]pyridine-3-carboxamide] | 2.23
16 | CC1CCc2c1c(O)c(C(=O)Nc1nccc(C(F)(F)F)n1)c(=O)n2C (centres unmarked) [Example 31, 4-Hydroxy-1,5-dimethyl-2-oxo-N-[4-(trifluoromethyl)pyrimidin-2-yl]-6,7-dihydro-5H-cyclopenta[b]pyridine-3-carboxamide] | 2.4
17 | CC1CCc2c1c(O)c(C(=O)Nc1ncc(C(F)(F)F)cn1)c(=O)n2C (centres unmarked) [Example 32, 4-Hydroxy-1,5-dimethyl-2-oxo-N-[5-(trifluoromethyl)pyrimidin-2-yl]-6,7-dihydro-5H-cyclopenta[b]pyridine-3-carboxamide] | 0.845
18 | CC1CCc2c1c(O)c(C(=O)Nc1ccc(C(F)(F)F)cn1)c(=O)n2C (centres unmarked) [Example 33, 4-Hydroxy-1,5-dimethyl-2-oxo-N-[5-(trifluoromethyl)-2-pyridyl]-6,7-dihydro-5H-cyclopenta[b]pyridine-3-carboxamide] | 2.64
19 | Cn1c2c(c(O)c(C(=O)Nc3ncc(F)cn3)c1=O)C(C)(C)CC2 [Example 43, N-(5-Fluoropyrimidin-2-yl)-4-hydroxy-1,5,5-trimethyl-2-oxo-6,7-dihydrocyclopenta[b]pyridine-3-carboxamide] | 0.973
20 | Cn1c2c(cc(C(=O)Nc3ccccn3)c1=O)CC(C)(C)C2 [Example 45, 1,6,6-Trimethyl-2-oxo-N-(2-pyridyl)-5,7-dihydrocyclopenta[b]pyridine-3-carboxamide] | 16.2

More lines, in order of falling EC50, values ahead:

Row | EC50 [nM] | SMILES
21 | 64.7 | C[C@H]1CCc2c1cc(C(=O)Nc1nnc(C(F)(F)F)o1)c(=O)n2C [Example 11, (5S)-1,5-Dimethyl-2-oxo-N-[5-(trifluoromethyl)-1,3,4-oxadiazol-2-yl]-6,7-dihydro-5H-cyclopenta[b]pyridine-3-carboxamide]
22 | 11.5 | C[C@@H]1CCc2c1cc(C(=O)Nc1ccccn1)c(=O)n2C [Example 23, (5R)-1,5-Dimethyl-2-oxo-N-(2-pyridyl)-6,7-dihydro-5H-cyclopenta[b]pyridine-3-carboxamide]
23 | 9.41 | Cn1c2c(c(O)c(C(=O)Nc3ccccn3)c1=O)CC(C)(C)C2 [Example 42, 4-Hydroxy-1,6,6-trimethyl-2-oxo-N-(2-pyridyl)-5,7-dihydrocyclopenta[b]pyridine-3-carboxamide]
24 | 4.67 | C[C@H]1CCc2c1cc(C(=O)Nc1ncc(F)cn1)c(=O)n2C [Example 13, (5S)-N-(5-Fluoropyrimidin-2-yl)-1,5-dimethyl-2-oxo-6,7-dihydro-5H-cyclopenta[b]pyridine-3-carboxamide]
25 | 4.1 | C[C@H]1CCc2c1cc(C(=O)Nc1ccccn1)c(=O)n2C [Example 22, (5S)-1,5-Dimethyl-2-oxo-N-(2-pyridyl)-6,7-dihydro-5H-cyclopenta[b]pyridine-3-carboxamide]
26 | 2.38 | Cn1c2c(c(O)c(C(=O)Nc3ccc(F)cn3)c1=O)C(C)(C)CC2 [Example 44, N-(5-Fluoro-2-pyridyl)-4-hydroxy-1,5,5-trimethyl-2-oxo-6,7-dihydrocyclopenta[b]pyridine-3-carboxamide]
27 | 1.93 | CC1CCc2c1cc(C(=O)Nc1nccs1)c(=O)n2C (centres unmarked) [Example 15, 1,5-Dimethyl-2-oxo-N-thiazol-2-yl-6,7-dihydro-5H-cyclopenta[b]pyridine-3-carboxamide]
28 | 1.62 | CC1CCc2c1c(O)c(C(=O)Nc1ncc(F)cn1)c(=O)n2C (centres unmarked) [Example 30, N-(5-Fluoropyrimidin-2-yl)-4-hydroxy-1,5-dimethyl-2-oxo-6,7-dihydro-5H-cyclopenta[b]pyridine-3-carboxamide]
29 | 1.34 | C[C@H]1CCc2c1cc(C(=O)Nc1ccns1)c(=O)n2C [Example 17, (5S)-N-Isothiazol-5-yl-1,5-dimethyl-2-oxo-6,7-dihydro-5H-cyclopenta[b]pyridine-3-carboxamide]
